PMC8470988, “Glucosylation of (±)-Menthol by Uridine-Diphosphate-Sugar Dependent Glucosyltransferases from Plants” (Molecules, 2021)

Target: T1, UGT93Y1 (Camellia sinensis, UniProt A0A4S4F2U3)
T1 construct: gene TEA_008645; UGT 467 aa, fusion about 80 kDa; His29, Asp134, PSPG box Trp342-Gln385, TSS 413-415
Assay: UDP Glo glycosyltransferase assay
Format: biochemical
Conditions: UDP-glucose as donor; 30 °C; 0-1000 µM menthol; kinetic fit with substrate inhibition, two-site sequential model with identical dissociation constants

T1 sequence (A0A4S4F2U3 entry or part of it): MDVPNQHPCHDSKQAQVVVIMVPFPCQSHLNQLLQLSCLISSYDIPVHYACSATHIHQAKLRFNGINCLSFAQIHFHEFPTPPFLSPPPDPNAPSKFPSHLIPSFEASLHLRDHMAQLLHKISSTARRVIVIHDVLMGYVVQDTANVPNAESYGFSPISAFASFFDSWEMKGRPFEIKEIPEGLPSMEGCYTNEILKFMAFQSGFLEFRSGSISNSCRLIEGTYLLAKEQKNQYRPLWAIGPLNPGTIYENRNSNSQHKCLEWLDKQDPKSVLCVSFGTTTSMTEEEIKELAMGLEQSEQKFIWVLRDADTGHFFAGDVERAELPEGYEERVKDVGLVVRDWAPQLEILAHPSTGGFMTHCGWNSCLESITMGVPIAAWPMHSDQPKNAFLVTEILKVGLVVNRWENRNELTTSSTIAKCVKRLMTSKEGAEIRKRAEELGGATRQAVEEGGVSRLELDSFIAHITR

CC1CCC(C(C)C)C(O)C1 (racemic) [(±)-menthol]
Kd: 453 µM
